The test system of assay [1] is Phakopsora pachyrhizi (F129L). Briefly: Protective control of soybean rust on soybeans (PHAKPA P6). The class given is in vivo.
The subject of assay [2] is Alternaria solani (wt). The class given is cell-based.
The test system of assay [3] is Alternaria solani (F129L). Briefly: Micro titer plate test against early blight (ALTESO F129L). As to conditions: 0.016 ppm, 7 days after inoculation, relative to compound-free control (100%). It is filed as cell-based.
For assay [4], the system named is Septoria tritici. Briefly: Micro titer plate test against leaf blotch on wheat (SEPTTR). It is filed as cell-based.
Assay [5] relates to Cercospora sojina. The class given is cell-based. Conditions: 4 ppm, 7 days after inoculation, relative to compound-free control (100%).
Assay [6] concerns Phakopsora pachyrhizi (wt). The assay can be described thus: Protective control of soybean rust on detached soybean leaves (PHAKPA P1 DL), Qo inhibitor-sensitive wt isolate. The class given is in vivo.
The test system of assay [7] is Phakopsora pachyrhizi (F129L). Briefly: Protective control of soybean rust on detached soybean leaves (PHAKPA P1 DL), F129L isolate. It is filed as in vivo.
Assay [8] deals with Microdochium nivale. The class given is cell-based. Conditions: 0.016 ppm, 7 days after inoculation, relative to compound-free control (100%).
In assay [9] the test system is Phakopsora pachyrhizi (F129L). The assay can be described thus: Protective control of soybean rust on soybeans (PHAKPA P2). The class given is in vivo.
[10] abbreviates: 0.016 ppm, 7 days after inoculation, relative to compound-free control (100%).
The mark [11] stands for this setting: 0.25 ppm, 7 days after inoculation, relative to compound-free control (100%).

SMILES strings stand for the structures. Values joined by “and” are separate entries in the source; they are usually repeats but may differ in a detail not shown here. Equal entries are not always repeated. Where two headings read alike, the source gives them in different places.

In the case of `CO/N=C(/C(=O)OC)c1cccc(C)c1CO/N=C(\C)c1cccc(C)c1` [compound 76], the “PHAKPA (F129L) Disease level (%) P6 at 16 ppm” value in [1] (protective, inoculation six days after spraying, 16 ppm, % diseased leaf area, listed as Ex. 76) was 0% and 4%. Also, the “Fungal growth (%) ALTESO wt” value in assay [2] (setting [10]) is given as 55%. In addition, in assay [3], the “Fungal growth (%) ALTESO F129L” value came out at 37%. In assay [4] (setting [11]), the “Fungal growth (%) SEPTTR” value is reported as 0%. Further, the “Fungal growth (%) CERCSO” value in [5] is recorded as 28%.

Turning to `CO/N=C(/C(=O)OC)c1cccc(C)c1CO/N=C(\SC)c1cccc(Cl)c1` [drawing 962], in [2] (setting [10]), the “Fungal growth (%) ALTESO wt” value came to 94%. In addition, the “Fungal growth (%) ALTESO F129L” value in assay [3] is reported as 100%. Moreover, in assay [4] (setting [11]), the “Fungal growth (%) SEPTTR” value was 39%.

As to `CNC(=O)/C(=N/OC)c1cccc(C)c1CO/N=C(\C)c1cccc(C(F)(F)F)c1` [compound 8], the “Fungal growth (%) ALTESO wt” value in assay [2] was found to be 56%. In addition, in [3] (listed as Ex. 8), the “Fungal growth (%) ALTESO F129L” value is 55% and 52%. Further, in assay [4], the “Fungal growth (%) SEPTTR” value was 57%.

In the case of `CNC(=O)/C(=N/OC)c1cccc(C)c1CO/N=C(\C)c1ccc(Cl)cc1` [compound 158], the “% PHAKPA (F129L) Disease level P6 at 4 ppm” value in [1] (protective P6, 4 ppm, soybean rust F129L isolate) came out at 2%. The “% PHAKPA (F129L) Disease level P6 at 16 ppm” value in assay [1] (protective P6, 16 ppm, soybean rust F129L isolate) worked out at 0%. For the same molecule, the “PHAKPA (F129L) Disease level (%) P6 at 4 ppm” value in assay [1] (protective, inoculation six days after spraying, 4 ppm, % diseased leaf area) came to 4%. Moreover, the “PHAKPA P1 DL Disease level (%) Qo I-sensitive wt isolate (0 % F129L)” value in assay [6] (test concentration 0.3 ppm) worked out at 38%; in [6] (test concentration 1 ppm) it was 7%; in assay [6] (test concentration 3 ppm) it was 2%; in assay [6] (test concentration 10 ppm), 1%; in [6] (test concentration 30 ppm), 4%; in assay [6] (test concentration 100 ppm), 5%. The “PHAKPA P1 DL Disease level (%) Qo I-sensitive wt isolate (0 % F129L)” value in assay [6] (test concentration 300 ppm) was 4%. Also, in assay [2] (setting [10]), the “Fungal growth (%) ALTESO wt” value is 66%. The “Fungal growth (%) ALTESO F129L” value in assay [3] amounted to 79%. Also, the “PHAKPA P1 DL Disease level (%) Qo I-resistant F129L isolate (100 % F129L)” value is given as 87% in assay [7] (test concentration 0.3 ppm); 57% in [7] (test concentration 1 ppm); 8% in assay [7] (test concentration 3 ppm); 2% in [7] (test concentration 10 ppm); 4% in assay [7] (test concentration 30 ppm); 4% in assay [7] (test concentration 100 ppm). Further, the “PHAKPA P1 DL Disease level (%) Qo I-resistant F129L isolate (100 % F129L)” value in [7] (test concentration 300 ppm) is given as 5%. Further, the “Fungal growth (%) MONGNI” value in assay [8] is listed as 71%. In assay [9] (protective P2, 4 ppm, soybean rust F129L isolate), the “% PHAKPA (F129L) Disease level P2 at 4 ppm” value stood at 0%. Further, the “% PHAKPA (F129L) Disease level P2 at 16 ppm” value in assay [9] (protective P2, 16 ppm, soybean rust F129L isolate) was found to be 0%. In addition, the “PHAKPA (F129L) Disease level (%) P2 at 4 ppm” value in assay [9] (protective, inoculation 2 days after spraying, 4 ppm, % diseased leaf area) worked out at 1%.

Take `CNC(=O)/C(=N/OC)c1cccc(C)c1CO/N=C(\OC)c1cccc(C(F)(F)F)c1` [drawing 948]: the “Fungal growth (%) ALTESO wt” value in assay [2] (setting [10]) is on record as 100%. Also, in assay [3], the “Fungal growth (%) ALTESO F129L” value is on record as 87%. The “Fungal growth (%) SEPTTR” value in assay [4] (setting [11]) turned out to be 77%.

`CNC(=O)/C(=N/OC)c1cccc(C)c1CO/N=C(/c1cccc(C)c1)C1CC1`: the “Fungal growth (%) ALTESO wt” value in assay [2] (setting [10]) is 89%. For the same molecule, the “Fungal growth (%) ALTESO F129L” value in assay [3] is 93%. Besides, in assay [4] (setting [11]), the “Fungal growth (%) SEPTTR” value is given as 87%.

For `CNC(=O)/C(=N/OC)c1cccc(C)c1CO/N=C(\SC)c1cccc(Cl)c1` [drawing 968], the “Fungal growth (%) ALTESO wt” value in [2] (setting [11]) came to 43%. The “Fungal growth (%) ALTESO F129L” value in [3] was 90%. In addition, the “Fungal growth (%) SEPTTR” value in assay [4] (setting [11]) stood at 59%.

As to `CNC(=O)/C(=N/OC)c1cccc(C)c1CO/N=C(\OC)c1cccc(C)c1`, the “Fungal growth (%) ALTESO wt” value in assay [2] (setting [10]) is reported as 93%. In assay [3], the “Fungal growth (%) ALTESO F129L” value was 95%. The “Fungal growth (%) SEPTTR” value in assay [4] (setting [11]) was 100%.

With `Cc1cccc(-n2nnn(C)c2=O)c1COc1ccn(-c2ccc(Cl)cc2)n1` [drawing 930], in [2] (setting [10]), the “Fungal growth (%) ALTESO wt” value is 98%. Moreover, the “Fungal growth (%) ALTESO F129L” value in assay [3] was 100%. The “Fungal growth (%) MONGNI” value in [8] is given as 97%.

The values are drawn from patent US20230172206A1 (BASF SE, priority 2020, published 2023).
